According to patent US10683287B2, “Heterocyclic derivatives and their use in the treatment of neurological disorders” (Novartis AG, priority 2011, dated 2020):

test system: Cellular Release of Amyloid Peptide 1-40; test: Test 4: Inhibition of Cellular Release of Amyloid Peptide 1-40; format: cell-based, Chinese hamster; settings: Cricetulus griseus, 24 h; read-out: Amyloid-β1-40 release IC50
Method: Chinese hamster ovary cells are transfected with the human gene for amyloid precursor protein. The cells are plated at a density of 8000 cells/well into 96-well microtiter plates and cultivated for 24 hours in DMEM cell culture medium containing 10% FCS. The test compound is added to the cells at various concentrations, and the cells are cultivated for 24 hours in the presence of the test compound.

SMILES | IC50 [µM]
Cc1cc(OC(F)F)cnc1C(=O)Nc1ccc(F)c([C@]2(C)CO[C@@](C)(C(F)(F)F)C(N)=N2)n1 [Example 29, 5-Difluoromethoxy-3-methyl-pyridine-2-carboxylic acid [6-((3R,6R)-5-amino-3,6-dimethyl-6-trifluoromethyl-3,6-dihydro-2H-[1,4]oxazin-3-yl)-5-fluoro-pyridin-2-yl]amide] | 0.024
C[C@@]1(c2nc(NC(=O)c3nc4ccn(CC(F)F)c4nc3N)ccc2F)CO[C@@](C)(C(F)(F)F)C(N)=N1 [Example 45, 3-Amino-5-(2,2-difluoro-ethyl)-5H-pyrrolo[2,3-b]pyrazine-2-carboxylic acid [6-((3R,6R)-5-amino-3,6-dimethyl-6-trifluoromethyl-3,6-dihydro-2H-[1,4]oxazin-3-yl)-5-fluoro-pyridin-2-yl]-amide] | 3.6
C[C@@]1(c2cccc(NC(=O)c3ncc(C#N)cc3N)n2)CO[C@@](C)(C(F)(F)F)C(N)=N1 [Example 19, 3-Amino-5-cyano-pyridine-2-carboxylic acid [6-((3R,6R)-5-amino-3,6-dimethyl-6-trifluoromethyl-3,6-dihydro-2H-[1,4]oxazin-3-yl)-pyridin-2-yl]-amide] | 0.048
